What was measured:
human TLR7 = target: T1, human TLR7 (Homo sapiens, UniProt Q9NYK1); assay: HEK-Blue hTLR7 SEAP reporter gene agonism assay; assay type: cell-based; settings: HEK-Blue hTLR7 cells, SEAP (Quanti-blue, 650 nm), 16-22 hours incubation
T1 construct: host or cells: HEK-Blue hTLR7 (HEK293-derived reporter cells)
T1 sequence (Q9NYK1 27-1049): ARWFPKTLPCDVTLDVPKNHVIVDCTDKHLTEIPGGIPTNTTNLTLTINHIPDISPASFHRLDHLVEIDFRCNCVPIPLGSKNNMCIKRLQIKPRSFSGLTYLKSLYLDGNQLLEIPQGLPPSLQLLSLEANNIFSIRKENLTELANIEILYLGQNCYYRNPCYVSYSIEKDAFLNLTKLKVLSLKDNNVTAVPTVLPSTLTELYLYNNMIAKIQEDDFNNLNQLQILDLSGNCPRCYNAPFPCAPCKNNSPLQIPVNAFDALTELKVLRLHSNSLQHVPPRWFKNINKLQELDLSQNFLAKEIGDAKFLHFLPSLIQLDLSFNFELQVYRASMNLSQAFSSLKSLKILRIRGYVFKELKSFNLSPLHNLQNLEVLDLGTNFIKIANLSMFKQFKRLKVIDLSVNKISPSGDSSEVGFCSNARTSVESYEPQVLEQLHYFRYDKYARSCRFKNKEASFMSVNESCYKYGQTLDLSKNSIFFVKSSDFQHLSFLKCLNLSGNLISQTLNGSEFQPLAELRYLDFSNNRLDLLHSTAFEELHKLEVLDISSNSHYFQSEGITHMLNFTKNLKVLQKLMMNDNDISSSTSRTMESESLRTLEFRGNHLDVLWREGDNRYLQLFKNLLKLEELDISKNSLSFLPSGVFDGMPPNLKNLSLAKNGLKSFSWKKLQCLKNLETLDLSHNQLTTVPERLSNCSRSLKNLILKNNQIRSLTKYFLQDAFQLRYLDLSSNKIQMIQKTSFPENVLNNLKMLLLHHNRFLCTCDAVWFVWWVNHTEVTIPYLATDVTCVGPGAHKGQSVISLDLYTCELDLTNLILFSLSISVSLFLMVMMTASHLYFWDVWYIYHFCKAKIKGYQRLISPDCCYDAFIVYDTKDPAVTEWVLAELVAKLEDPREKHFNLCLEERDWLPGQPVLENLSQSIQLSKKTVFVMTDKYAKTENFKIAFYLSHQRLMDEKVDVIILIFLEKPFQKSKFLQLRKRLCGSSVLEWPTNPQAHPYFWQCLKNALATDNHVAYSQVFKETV
Experimental: (§1) The agonistic activity of the compounds of the present invention on TLR7 or TLR8 was evaluated using HEK-Blue™ cells stably expressing human TLR7 or TLR8. And the agonistic activity was assayed using their ability to induce the SEAP reporter gene under the control of the IFN-β minimal promoter fused to five NF-κB and ap-1 binding sites, specifically as follows:
(§2) HEK-Blue™ hTLR7 (Invivogen, 80,000 cells per well) or HEK-Blue™ hTLR8 (Invivogen, 60,000 cells per well) was added to a 96-well cell culture plate, the compound to be tested is added whereafter, and the final concentration of the compound(s) to be tested in the medium ranged from 0.001 to 36 μM, then incubated for 16-22 hours. SEAP levels in the cell culture medium were detected using HEK-Blue assay reagent Quanti-blue (Invivogen) according to the manufacturer's instructions. Neo2 Multifunctional Enzyme Labeler (Bio-tek) was used to determine the light absorption at 650 nm. GraphPad Prism was utilized to calculate the EC50, which is the half effective concentration of the drug.

human TLR8 = target: T2, human TLR8 (Homo sapiens, UniProt Q9NR97); assay: HEK-Blue hTLR8 SEAP reporter gene agonism assay; assay type: cell-based; settings: HEK-Blue hTLR8 cells, SEAP (Quanti-blue, 650 nm), 16-22 hours incubation
T2 construct: host or cells: HEK-Blue hTLR8 (HEK293-derived reporter cells)
T2 sequence (Q9NR97 27-1041): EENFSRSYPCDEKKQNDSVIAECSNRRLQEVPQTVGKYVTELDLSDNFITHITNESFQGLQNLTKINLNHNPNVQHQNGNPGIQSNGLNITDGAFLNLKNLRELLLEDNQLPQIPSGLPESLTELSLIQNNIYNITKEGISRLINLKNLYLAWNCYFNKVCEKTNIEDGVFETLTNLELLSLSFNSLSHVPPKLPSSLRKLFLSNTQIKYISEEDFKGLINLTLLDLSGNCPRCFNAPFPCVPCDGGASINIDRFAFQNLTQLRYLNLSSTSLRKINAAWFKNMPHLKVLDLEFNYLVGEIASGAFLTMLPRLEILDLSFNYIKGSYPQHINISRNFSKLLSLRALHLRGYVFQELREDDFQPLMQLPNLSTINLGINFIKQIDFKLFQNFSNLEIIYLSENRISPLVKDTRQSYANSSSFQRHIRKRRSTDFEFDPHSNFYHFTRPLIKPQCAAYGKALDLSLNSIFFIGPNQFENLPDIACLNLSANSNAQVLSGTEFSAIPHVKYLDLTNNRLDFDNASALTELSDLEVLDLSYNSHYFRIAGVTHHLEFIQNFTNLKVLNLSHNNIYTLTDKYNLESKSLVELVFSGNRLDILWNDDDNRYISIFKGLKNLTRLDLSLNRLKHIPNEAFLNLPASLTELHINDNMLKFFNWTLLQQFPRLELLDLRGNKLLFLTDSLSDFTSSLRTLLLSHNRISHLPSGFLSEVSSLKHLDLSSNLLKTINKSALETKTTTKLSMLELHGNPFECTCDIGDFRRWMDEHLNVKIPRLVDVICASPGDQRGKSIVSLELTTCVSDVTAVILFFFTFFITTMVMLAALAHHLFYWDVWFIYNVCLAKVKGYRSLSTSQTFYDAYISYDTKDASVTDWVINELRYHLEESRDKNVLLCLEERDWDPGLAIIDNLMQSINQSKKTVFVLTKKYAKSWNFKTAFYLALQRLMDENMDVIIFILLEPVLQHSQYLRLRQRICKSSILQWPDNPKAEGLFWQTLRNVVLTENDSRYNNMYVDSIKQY
Experimental: as §1, §2

EC50 (human TLR7) [nM]	EC50 (human TLR8) [nM]	Structure (SMILES)
922	149	CCCCNc1nc(N)nc2cnn(Cc3ccc(OCCNC)cc3)c(=O)c12 [Compound I-19, 2-amino-4-(butylamino)-6-(4-(2-(methylamino)ethoxy)benzyl)pyrimido[4,5-d]pyridazin-5(6H)-one]
634	194	CCC[C@@H](C)Nc1nc(N)nc2cnn(Cc3ccc(C(=O)N4CCNCC4)cc3OC)c(=O)c12 [Compound I-24, (R)-2-amino-6-(2-methoxy-4-(piperazine-1-carbonyl)benzyl)-4-(pentan-2-ylamino)pyrimido[4,5-d]pyridazin-5(6H)-one]
631	147	CCC[C@@H](C)Nc1nc(N)nc2cnn(Cc3ccc(CN4CCCC4)cc3OC)c(=O)c12 [Compound I-25, (R)-2-amino-6-(2-methoxy-4-(pyrrolidin-1-ylmethyl)benzyl)-4-(pentan-2-ylamino)pyrimido[4,5-d]pyridazin-5(6H)-one]
641	181	CCC[C@@H](C)Nc1nc(N)nc2cnn(Cc3ccc(OCCNC)cc3)c(=O)c12 [Compound I-39, (R)-2-amino-6-(4-(2-(methylamino)ethoxy)benzyl)-4-(pentan-2-ylamino)pyrimido[4,5-d]pyridazin-5(6H)-one]
900	83	CCC[C@@H](C)Nc1nc(N)nc2cnn(Cc3ccc(CN4CCCC4)cc3)c(=O)c12 [Compound I-40, (R)-2-amino-4-(pentan-2-ylamino)-6-(4-(pyrrolidin-1-ylmethyl)benzyl)pyrimido[4,5-d]pyridazin-5(6H)-one]
357	70	CCC[C@@H](C)Nc1nc(N)nc2cnn(Cc3ccc(OCCNC)nc3)c(=O)c12 [Compound I-47, (R)-2-amino-6-((6-(2-(methylamino)ethoxy)pyridin-3-yl)methyl)-4-(pentan-2-ylamino)pyrimido[4,5-d]pyridazin-5(6H)-one]
921	203	CCC[C@@H](C)Nc1nc(N)nc2cnn(Cc3ccc(CN4CCN(C)CC4)cc3)c(=O)c12 [Compound I-48, (R)-2-amino-6-(4-((4-methylpiperazin-1-yl)methyl)benzyl)-4-(pentan-2-ylamino)pyrimido[4,5-d]pyridazin-5(6H)-one]
964	73	CCC[C@@H](C)Nc1nc(N)nc2cnn(Cc3ccc(CN(C)CCO)cc3)c(=O)c12 [Compound I-49]
770	157	CCC[C@@H](C)Nc1nc(N)nc2cnn(Cc3ccc(CN4CCNCC4)cc3)c(=O)c12 [Compound I-50, (R)-2-amino-4-(pentan-2-ylamino)-6-(4-(piperazin-1-ylmethyl)benzyl)pyrimido[4,5-d]pyridazin-5(6H)-one]
892	141	CCCN[C@H](C)c1ccc(Cn2ncc3nc(N)nc(N[C@H](C)CCC)c3c2=O)cc1 [Compound I-51, 2-amino-4-(((R)-pentan-2-yl)amino)-6-(4-((R)-1-(propylamino)ethyl)benzyl)pyrimido[4,5-d]pyridazine-5(6H)-one]
785	125	CCCN[C@@H](C)c1ccc(Cn2ncc3nc(N)nc(N[C@H](C)CCC)c3c2=O)cc1 [Compound I-52, 2-amino-4-(((R)-pentan-2-yl)amino)-6-(4-((S)-1-(propylamino)ethyl)benzyl)pyrimido[4,5-d]pyridazine-5(6H)-one]
597	175	CCC[C@@H](C)Nc1nc(N)nc2cnn(Cc3ccc(OCCNC)nc3OC)c(=O)c12 [Compound I-53, (R)-2-amino-6-((2-methoxy-6-(2-(methylamino)ethoxy)pyridin-3-yl)methyl)-4-(pentan-2-ylamino)pyrimido[4,5-d]pyridazin-5(6H)-one]
407	107	CCC[C@@H](C)Nc1nc(N)nc2cnn(Cc3ccc(C4CCN(C)CC4)cc3)c(=O)c12 [Compound I-57, (R)-2-amino-6-(4-(1-methylpiperidin-4-yl)benzyl)-4-(pentan-2-ylamino)pyrimido[4,5-d]pyridazin-5(6H)-one]
	192	CCC[C@@H](C)Nc1nc(N)nc2cnn(Cc3ccc(C(=O)N4CCN(C)CC4)cc3)c(=O)c12 [Compound I-60, (R)-2-amino-6-(4-(4-methylpiperazine-1-carbonyl)benzyl)-4-(pentan-2-ylamino)pyrimido[4,5-d]pyridazin-5(6H)-one]
	589	CCCCNc1nc(N)nc2cnn(Cc3ccc(CN4CCCC4)cn3)c(=O)c12 [Compound I-62, 2-amino-4-(butylamino)-6-((5-(pyrrolidin-1-ylmethyl)pyridin-2-yl)methyl)pyrimido[4,5-d]pyridazin-5(6H)-one]
	534	CCC[C@@H](CC)Nc1nc(N)nc2cnn(Cc3ccc(CN4CCCC4)cc3)c(=O)c12 [Compound I-63, (R)-2-amino-4-(hexan-3-ylamino)-6-(4-(pyrrolidin-1-ylmethyl)benzyl)pyrimido[4,5-d]pyridazin-5(6H)-one]
	23	CCC[C@@H](CO)Nc1nc(N)nc2cnn(Cc3ccc(CN4CCN(C)CC4)cc3)c(=O)c12 [Compound I-66, (S)-2-amino-4-((1-hydroxypentan-2-yl)amino)-6-(4-((4-methylpiperazin-1-yl)methyl)benzyl)pyrimido[4,5-d]pyridazin-5(6H)-one]
	51	CCCC[C@@H](CO)Nc1nc(N)nc2cnn(Cc3ccc(CN4CCCC4)cc3)c(=O)c12 [Compound I-67, (S)-2-amino-4-((1-hydroxyhexan-2-yl)amino)-6-(4-(pyrrolidin-1-ylmethyl)benzyl)pyrimido[4,5-d]pyridazin-5(6H)-one]
	41	CCC[C@@H](CO)Nc1nc(N)nc2cnn(Cc3ccc(C(=O)N4CCN(C)CC4)cc3)c(=O)c12 [Compound I-69, (S)-2-amino-4-((1-hydroxypentan-2-yl)amino)-6-(4-(4-methylpiperazine-1-carbonyl)benzyl)pyrimido[4,5-d]pyridazin-5(6H)-one]
	20	CCC[C@@H](CO)Nc1nc(N)nc2cnn(Cc3ccc(C(=O)N4CC5CC(C4)N5)cc3)c(=O)c12 [Compound I-70, 6-(4-(3,6-diazabicyclo[3.1.1]heptane-3-carbonyl)benzyl)-2-amino-4-(((S)-1-hydroxypentan-2-yl)amino)pyrimido[4,5-d]pyridazin-5(6H)-one]

From patent publication US20250195524A1, “PYRIMIDO-PYRIDAZINONE COMPOUND AS TOLL-LIKE RECEPTOR AGONIST” (SHANGHAI VISONPHARMA CO., LTD., priority 2022, published 2025)
